# Experimental data as given in patent publication US5519018A, “Substituted phenols and their use for the treatment of disorders caused by cell proliferation” (Behringwerke Aktiengesellschaft, priority 1992, dated 1996).
# Where two headings read alike, the source gives them in different places.
# What was measured:
# [1] = molecular target: T1, EGF receptor tyrosine kinase (EGFRTK) (Homo sapiens, UniProt P00533); test: biochemical
# T1 construct: This cell line expresses a large number of EGF receptors which have tyrosine kinase activity on the cell surface; endogenous in cells; host or cells: A 431 (ATCC CRL 1555), membrane preparation
# T1 sequence (P00533 25-1210): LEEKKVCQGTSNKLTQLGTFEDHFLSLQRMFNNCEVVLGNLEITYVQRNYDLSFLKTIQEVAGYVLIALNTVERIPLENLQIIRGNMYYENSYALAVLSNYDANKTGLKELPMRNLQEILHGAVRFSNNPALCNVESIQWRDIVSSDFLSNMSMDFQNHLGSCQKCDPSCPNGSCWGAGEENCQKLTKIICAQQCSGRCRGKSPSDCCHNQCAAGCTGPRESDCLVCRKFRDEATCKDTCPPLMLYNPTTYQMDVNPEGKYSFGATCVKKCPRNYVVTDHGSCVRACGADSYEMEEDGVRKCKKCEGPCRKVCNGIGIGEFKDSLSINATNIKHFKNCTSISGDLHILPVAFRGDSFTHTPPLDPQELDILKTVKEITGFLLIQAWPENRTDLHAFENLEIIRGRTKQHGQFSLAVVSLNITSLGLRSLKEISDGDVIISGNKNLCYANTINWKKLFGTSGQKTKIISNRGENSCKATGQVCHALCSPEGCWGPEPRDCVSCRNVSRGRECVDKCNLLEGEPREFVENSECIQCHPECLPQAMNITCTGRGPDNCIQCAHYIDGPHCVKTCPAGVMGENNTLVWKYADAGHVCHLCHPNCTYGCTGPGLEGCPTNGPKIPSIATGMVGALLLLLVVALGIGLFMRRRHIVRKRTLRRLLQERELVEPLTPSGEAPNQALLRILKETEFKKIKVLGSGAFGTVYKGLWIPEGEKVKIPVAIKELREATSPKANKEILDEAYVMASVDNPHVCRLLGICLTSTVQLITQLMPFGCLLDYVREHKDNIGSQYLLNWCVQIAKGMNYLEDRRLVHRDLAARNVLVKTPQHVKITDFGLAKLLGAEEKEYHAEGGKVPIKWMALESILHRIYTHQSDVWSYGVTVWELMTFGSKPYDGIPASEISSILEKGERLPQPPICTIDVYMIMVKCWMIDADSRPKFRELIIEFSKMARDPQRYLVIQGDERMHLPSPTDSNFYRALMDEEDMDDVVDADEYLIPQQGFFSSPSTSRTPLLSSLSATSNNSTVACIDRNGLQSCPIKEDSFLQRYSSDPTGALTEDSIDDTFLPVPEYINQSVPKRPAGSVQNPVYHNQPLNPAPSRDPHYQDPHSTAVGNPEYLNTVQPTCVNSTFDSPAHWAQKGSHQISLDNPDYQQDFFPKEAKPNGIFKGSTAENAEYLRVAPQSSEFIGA
# Procedure: Test for EGF receptor tyrosine kinase inhibition
# This cell line expresses a large number of EGF receptors which have tyrosine kinase activity on the cell surface. The cells were cultured almost to confluence, washed with PBS (phosphate buffered saline, pH 7.2), scraped off the culture flask and incubated at 4° C. for 1 h, subjected to 20 strokes in a Potter and centrifuged at 1000 g for 30'. The supernatant was centrifuged at 20000 g for a further 20 min and the pellet was taken up in 100 μl per 1×10^6 cells as the membrane preparation.
# The tyrosine kinase activity of the EGF receptor (EGFRTK) was measured using poly(Glu, Ala, Tyr), 6:3:1, as the substrate. […] After 15'at 30° C., the substrate was precipitated with 10% TCA (trichloroacetic acid), filtered on a millititer filtration plate (Millipore Corporation, Massachusetts, USA), washed and dried. The incorporation of ^32 P was determined by means of a liquid scintillation counter.
# [2] = test system: cAMP-dependent protein kinase (PKA); test: Test for 3',5'-cAMP-dependent protein kinase inhibition (PKA catalytic subunit, Kemptide substrate); assay type: biochemical; conditions: 40 μM ATP, 15' at 30° C.
# Procedure: Test for 3',5'-cAMP-dependent protein kinase inhibition
# The catalytic subunit of the cAMP-dependent protein kinase (PKA) (Sigma) was reconstituted as described by Sigma (Sigma Chemical Co., St. Louis, Mo. USA). The enzyme activity was measured using Kemptide (Sigma) (Leu-Arg-Arg-Ala-Ser-Leu-Gly) as a substrate. […] The reaction was initiated by addition of gamma-^32 P ATP (40 μM) After 15'at 30° C., an aliquot part was added to p81 ion exchanger (2×2 cm; Whatman Paper Ltd., Great Britain), immersed in 75 mM H3 PO4, washed, dried, and the incorporation of ^32 P was determined by means of a liquid scintillation counter.
# hela cells = test: Test for inhibition of EGF-stimulated proliferation of tumor cells (hela, MTT); assay type: cell-based; conditions: 65 h; for inhibition at 5 µg/mL / EGF stimulation % inhibition at 5 μg/ml: 5 μg/ml; for inhibition at 5 µg/mL: read-out: EGF stimulation % inhibition at 5 μg/ml
# Procedure: Test for inhibition of EGF- or bFGF-stimulated proliferation of tumor cells
# 2×10^3 hela cells per well were inoculated into a 96-well microtiter plate (in RPMI+1% FCS ). After 24 h, the medium was changed to RPMI+0.5% FCS and various concentrations of the test substance±EGF (0.1 nM)/bFGF (1 ng/ml) were added. Each group consisted of 4 wells; the control was only incubated±growth factor. After 65 h, 50 μof MTT (2.5 mg/ml in PBS) were added and the supernatant was removed after 7 h. The colored substance formed by the living cells was dissolved by addition of 100 μl of DMSO/well. The absorption was measured at 492 nm for each well with the aid of a 340 CC Multiscan photometer (Flow).
# The mean value is formed from the 4 wells of a group and the absorption difference between the controls± growth factor (A) and between the groups with test substance± growth factor (B) is determined.
# [3] = A 431 membranes, 1000 nM EGF, 32 μM ATP, 15' at 30° C., max. 51 μg/ml, read-out: EGFRTK IC50 (converted)
# [4] = 25 μg/ml, hela cells, EGF 0.1 nM, tox = toxic
# [5] = Homo sapiens, hela cells, EGF 0.1 nM, tox = toxic
# [6] = hela cells, EGF 0.1 nM, tox = toxic
Compound,"IC50 [1, 3] [µM]",PKA % inhib. at 40 μg/ml [2] [%],EGF stimulation % inhibition at 25 μg/ml (hela cells; [4]),inhibition at 5 µg/mL (hela cells; [5]) [%],EGF stimulation % inhibition at 5 μg/ml (hela cells; [6]),other results
"Oc1ccc(O)c(C=NN2CCOCC2)c1 [Ex. 11, 2,5-Dihydroxy-N-morpholinobenzaldimine]",12.5,0,tox,17,,
"CN1CCN(N=Cc2cc(O)ccc2O)CC1 [Ex. 12, 2,5-Dihydroxy-N-(4'-methylpiperazino)benzaldimine]",2.38,0,tox,21,,
"Oc1ccc(O)c(C=NC2CCCCC2)c1 [N-Cyclohexyl-2,5-dihydroxybenzaldimine]",44.7,61,,39,,"inhibition at 25 µg/mL (hela cells; Homo sapiens, 25 μg/ml, hela cells, EGF 0.1 nM, tox = toxic, read-out: EGF stimulation % inhibition at 25 μg/ml): 64%"
"Oc1ccc(O)c(C=NN2CCCCCC2)c1 [N-Homopiperidino-2,5-dihydroxybenzaldimine]",17.4,0,,,tox,
Oc1ccccc1O [Pyrocatechol],,0,,,,"IC50 [1]: 14.5 µM; inhibition at 0.2 µg/mL (hela cells; Homo sapiens, HeLa, read-out: EGF stimulation % inhibition at 0.2 μg/ml): 16%; inhibition at 1 µg/mL (hela cells; Homo sapiens, HeLa, read-out: EGF stimulation % inhibition at 1 μg/ml): 35%"
O=C1C=CC(=O)C=C1.Oc1ccc(O)cc1 [Quinhydrone],,0,,,64%,"EGFRTK IC50 ([1]; A 431 membranes, 1000 nM EGF, 32 μM ATP, 15' at 30° C., max. 51 μg/ml): 0.126 µg/mL; EGF stimulation % inhibition at 1 μg/ml (hela cells; 1 μg/ml, hela cells, EGF 0.1 nM, tox = toxic): 12%"
